# Reference: patent US11332468B2, “Azaindole derivatives as Rho-kinase inhibitors” (CHIESI FARMACEUTICI S.p.A., priority 2017, dated 2022)
# pKi: −log10 of the molar value.
# How the values were obtained:
# [1] = biological target: Rho kinase 1 (ROCK1) (Homo sapiens, UniProt Q13464); assay: In vitro Rho kinase inhibitory activity assay (ADP-Glo), ROCK1; assay type: biochemical; settings: Ki by Cheng-Prusoff from IC50; 10 μM ATP; range of activity
# Description: (§1) The effectiveness of compounds of the invention to inhibit Rho kinase activity can be determined in a […] assay containing 40 mM Tris pH7.5, 20 mM MgC2 0.1 mg/ml BSA, 50 μM DTT and 2.5 μM peptide substrate (Myelin Basic Protein) using an ADP-Glo kit (Promega). Compounds were dissolved in DMSO such that the final concentration of DMSO was 1% in the assay. All reactions/incubations are performed at 25° C. Compound (2 ul) and either Rho kinase 1 or 2 (4 μl) were mixed and incubated for 30 mins. Reactions were initiated by addition of ATP (4 μl) such that the final concentration of ATP in the assay was 10 μM. After a 1 hour incubation 10 μl of ADP-Glo Reagent was added and after a further 45 minute incubation 20 ul of Kinase Detection Buffer was added and the mixture incubated for a further 30 minutes. The luminescent signal was measured on a luminometer. […] Compounds were tested in dose-response format and the inhibition of kinase activity was calculated at each concentration of compound. To determine the IC50 (concentration of compound required to inhibit 50% of the enzyme activity) data were fit to a plot of % inhibition vs Log10 compound concentration using a sigmoidal fit with a variable slope and fixing the maximum to 100% and the minimum to 0%. To determine the Ki values the Cheng-Prusoff equation was utilized (Ki=IC50/(1+[S]/Km)
# [2] = biological target: Rho kinase 2 (ROCK2) (Homo sapiens, UniProt O75116); assay: In vitro Rho kinase inhibitory activity assay (ADP-Glo), ROCK2; assay type: biochemical; settings: Ki by Cheng-Prusoff from IC50; 10 μM ATP; range of activity
# Chain of Rho kinase 2 (ROCK2) (O75116 whole entry): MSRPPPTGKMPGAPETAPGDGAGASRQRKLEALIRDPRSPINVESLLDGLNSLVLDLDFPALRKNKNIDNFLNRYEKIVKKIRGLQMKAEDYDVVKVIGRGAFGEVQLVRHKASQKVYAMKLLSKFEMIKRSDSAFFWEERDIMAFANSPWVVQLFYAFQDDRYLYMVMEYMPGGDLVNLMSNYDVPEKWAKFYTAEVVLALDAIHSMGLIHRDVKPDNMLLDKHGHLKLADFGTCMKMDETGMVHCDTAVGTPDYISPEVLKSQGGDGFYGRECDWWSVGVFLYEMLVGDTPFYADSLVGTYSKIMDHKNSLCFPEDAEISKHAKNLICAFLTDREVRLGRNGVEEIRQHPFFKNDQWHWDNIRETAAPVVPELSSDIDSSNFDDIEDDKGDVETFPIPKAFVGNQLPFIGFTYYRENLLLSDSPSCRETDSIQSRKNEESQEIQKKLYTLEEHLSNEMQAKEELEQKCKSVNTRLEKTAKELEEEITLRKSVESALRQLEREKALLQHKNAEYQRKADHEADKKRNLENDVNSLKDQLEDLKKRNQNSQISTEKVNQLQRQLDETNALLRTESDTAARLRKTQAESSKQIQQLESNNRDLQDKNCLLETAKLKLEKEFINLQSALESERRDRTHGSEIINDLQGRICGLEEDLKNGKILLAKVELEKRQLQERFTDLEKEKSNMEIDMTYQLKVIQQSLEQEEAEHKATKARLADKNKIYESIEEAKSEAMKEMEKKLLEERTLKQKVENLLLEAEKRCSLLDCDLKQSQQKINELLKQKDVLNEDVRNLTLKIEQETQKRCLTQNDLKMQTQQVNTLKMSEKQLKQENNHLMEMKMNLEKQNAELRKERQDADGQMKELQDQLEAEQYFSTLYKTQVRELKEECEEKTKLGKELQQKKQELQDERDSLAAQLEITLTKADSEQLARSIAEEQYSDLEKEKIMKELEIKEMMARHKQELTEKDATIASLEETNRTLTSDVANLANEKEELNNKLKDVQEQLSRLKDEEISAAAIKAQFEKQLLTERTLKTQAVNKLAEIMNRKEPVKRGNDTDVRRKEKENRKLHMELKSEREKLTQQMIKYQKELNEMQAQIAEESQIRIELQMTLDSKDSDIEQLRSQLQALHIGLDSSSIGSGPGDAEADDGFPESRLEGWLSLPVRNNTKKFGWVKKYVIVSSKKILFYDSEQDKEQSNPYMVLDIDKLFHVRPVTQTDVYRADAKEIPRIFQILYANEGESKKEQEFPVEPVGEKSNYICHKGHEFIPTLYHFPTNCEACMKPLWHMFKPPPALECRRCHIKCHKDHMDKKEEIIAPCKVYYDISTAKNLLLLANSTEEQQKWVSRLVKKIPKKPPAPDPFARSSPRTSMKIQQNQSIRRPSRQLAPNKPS
# Description: as §1
# Chain of Rho kinase 1 (ROCK1) (Q13464 whole entry): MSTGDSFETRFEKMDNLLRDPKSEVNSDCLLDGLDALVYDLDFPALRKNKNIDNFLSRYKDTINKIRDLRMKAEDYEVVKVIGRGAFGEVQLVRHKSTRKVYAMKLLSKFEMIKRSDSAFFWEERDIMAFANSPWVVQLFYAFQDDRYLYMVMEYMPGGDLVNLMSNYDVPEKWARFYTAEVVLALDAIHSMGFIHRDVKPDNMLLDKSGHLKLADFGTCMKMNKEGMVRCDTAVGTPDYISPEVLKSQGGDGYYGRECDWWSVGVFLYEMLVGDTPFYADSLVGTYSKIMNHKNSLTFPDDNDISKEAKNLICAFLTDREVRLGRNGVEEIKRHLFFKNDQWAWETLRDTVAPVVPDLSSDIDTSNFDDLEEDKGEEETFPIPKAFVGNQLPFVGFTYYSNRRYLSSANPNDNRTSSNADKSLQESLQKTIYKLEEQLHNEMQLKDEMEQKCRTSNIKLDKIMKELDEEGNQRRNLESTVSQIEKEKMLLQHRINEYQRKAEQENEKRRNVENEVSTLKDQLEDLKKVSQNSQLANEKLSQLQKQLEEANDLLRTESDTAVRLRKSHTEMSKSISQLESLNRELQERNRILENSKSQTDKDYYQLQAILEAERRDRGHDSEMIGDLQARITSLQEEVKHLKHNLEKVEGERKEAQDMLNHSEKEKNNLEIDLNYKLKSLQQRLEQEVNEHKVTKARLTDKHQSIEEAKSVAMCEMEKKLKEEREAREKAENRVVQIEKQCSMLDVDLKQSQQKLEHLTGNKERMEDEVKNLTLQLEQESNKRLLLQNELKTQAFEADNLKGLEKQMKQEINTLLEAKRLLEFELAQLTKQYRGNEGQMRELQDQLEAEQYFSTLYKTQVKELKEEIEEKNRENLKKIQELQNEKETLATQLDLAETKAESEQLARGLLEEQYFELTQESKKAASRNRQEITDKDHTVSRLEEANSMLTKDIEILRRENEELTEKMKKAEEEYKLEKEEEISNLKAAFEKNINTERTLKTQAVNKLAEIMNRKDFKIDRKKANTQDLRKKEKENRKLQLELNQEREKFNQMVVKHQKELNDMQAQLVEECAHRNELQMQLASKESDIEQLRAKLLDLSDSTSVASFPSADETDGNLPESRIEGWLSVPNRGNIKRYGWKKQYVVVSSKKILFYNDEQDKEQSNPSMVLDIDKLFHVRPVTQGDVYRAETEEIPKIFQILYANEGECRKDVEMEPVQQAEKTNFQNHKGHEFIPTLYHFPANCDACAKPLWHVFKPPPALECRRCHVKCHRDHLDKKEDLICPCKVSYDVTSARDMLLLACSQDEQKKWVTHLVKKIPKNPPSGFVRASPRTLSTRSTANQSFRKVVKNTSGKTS
Compound,pKi [1],pKi [2]
"Cc1c[nH]c2nccc(Oc3ccc(C4CCCN4)cc3)c12 (racemic) [Example 18, 3-methyl-4-(4-(pyrrolidin-2-yl)phenoxy)-1H-pyrrolo[2,3-b]pyridine]",7.30 to 8.30,7.30 to 8.30
"Cc1c[nH]c2nccc(Oc3ccc(C4CCCN4)cc3)c12 (single isomer, unassigned) [Example 18B, 3-methyl-4-(4-(pyrrolidin-2-yl)phenoxy)-1H-pyrrolo[2,3-b]pyridine]",,7.30 to 8.30
"Cc1c[nH]c2nccc(Oc3ccc4c(c3)CNCC4)c12 [Example 1, 7-((3-Methyl-1H-pyrrolo[2,3-b]pyridin-4-yl)oxy)-1,2,3,4-tetrahydroisoquinoline]",> 8.30,> 8.30
"Cc1c[nH]c2nccc(Oc3ccc4c(c3)CNC4)c12 [Example 2, 4-(isoindolin-5-yloxy)-3-methyl-1H-pyrrolo[2,3-b]pyridine]",> 8.30,> 8.30
"CNCc1ccc(Oc2ccnc3[nH]cc(C)c23)cc1 [Example 3, N-methyl-1-(4-((3-methyl-1H-pyrrolo[2,3-b]pyridin-4-yl)oxy)phenyl)methanamine]",7.30 to 8.30,7.30 to 8.30
"Cc1c[nH]c2nccc(Oc3ccc4c(c3)CCNCC4)c12 [Example 5, 7-((3-methyl-1H-pyrrolo[2,3-b]pyridin-4-yl)oxy)-2,3,4,5-tetrahydro-1H-benzo[d]azepine]",> 8.30,> 8.30
"Cc1c[nH]c2ncnc(Oc3ccc4c(c3)CNCC4)c12 [Example 6, 7-((5-methyl-7H-pyrrolo[2,3-d]pyrimidin-4-yl)oxy)-1,2,3,4-tetrahydroisoquinoline]",7.30 to 8.30,7.30 to 8.30
"Cc1c[nH]c2ncnc(Oc3ccc(C4CCNC4)cc3)c12 (centres unmarked) [Example 7, 5-methyl-4-(4-(pyrrolidin-3-yl)phenoxy)-7H-pyrrolo[2,3-d]pyrimidine]",< 7.30,< 7.30
"Cc1c[nH]c2nccc(Oc3ccc4c(c3)CN(C)CC4)c12 [Example 10, 2-methyl-7-((3-methyl-1H-pyrrolo[2,3-b]pyridin-4-yl)oxy)-1,2,3,4-tetrahydroisoquinoline]",> 8.30,> 8.30
"Cc1c[nH]c2nccc(Oc3ccc4c(c3)CCNC4)c12 [Example 11, 6-((3-methyl-1H-pyrrolo[2,3-b]pyridin-4-yl)oxy)-1,2,3,4-tetrahydroisoquinoline]",7.30 to 8.30,7.30 to 8.30
"Cc1c[nH]c2nccc(Oc3ccc(C4CNCCN4)cc3)c12 (centres unmarked) [Example 13, 3-methyl-4-(4-(piperazin-2-yl)phenoxy)-1H-pyrrolo[2,3-b]pyridine]",7.30 to 8.30,7.30 to 8.30
"Cc1c[nH]c2nccc(Oc3ccc4c(c3)CC(N)C4)c12 (centres unmarked) [Example 14, 5-((3-methyl-1H-pyrrolo[2,3-b]pyridin-4-yl)oxy)-2,3-dihydro-1H-inden-2-amine]",7.30 to 8.30,> 8.30
"Cc1c[nH]c2nccc(Oc3ccc4c(c3)CCCNC4)c12 [Example 15, 7-((3-methyl-1H-pyrrolo[2,3-b]pyridin-4-yl)oxy)-2,3,4,5-tetrahydro-1H-benzo[c]azepine]",7.30 to 8.30,7.30 to 8.30
"Cc1c[nH]c2nccc(Oc3ccc(CCN4CCCC4)cc3)c12 [Example 22, 3-methyl-4-(4-(2-(pyrrolidin-1-yl)ethyl)phenoxy)-1H-pyrrolo[2,3-b]pyridine]",7.30 to 8.30,7.30 to 8.30
"Cc1c[nH]c2nccc(Oc3ccc(CNC4CCOCC4)cc3)c12 [Example 28, N-(4-((3-methyl-1H-pyrrolo[2,3-b]pyridin-4-yl)oxy)benzyl)tetrahydro-2H-pyran-4-amine]",7.30 to 8.30,7.30 to 8.30
"Cc1c[nH]c2nccc(Oc3ccc(CN(C)C)cc3)c12 [Example 29, N,N-dimethyl-1-(4-((3-methyl-1H-pyrrolo[2,3-b]pyridin-4-yl)oxy)phenyl)methanamine]",7.30 to 8.30,7.30 to 8.30
"Cc1c[nH]c2nccc(Oc3ccc(CN4CCC5(CCNC5)C4)cc3)c12 (centres unmarked) [Example 32, 4-(4-(2,7-diazaspiro[4.4]nonan-2-ylmethyl)phenoxy)-3-methyl-1H-pyrrolo[2,3-b]pyridine]",7.30 to 8.30,7.30 to 8.30
"Cc1c[nH]c2nccc(Oc3ccc(C[C@H](N)CO)cc3F)c12 [Example 36, (S)-2-amino-3-(3-fluoro-4-((3-methyl-1H-pyrrolo[2,3-b]pyridin-4-yl)oxy)phenyl)propan-1-ol]",> 8.30,> 8.30

# Next, values leading:
pKi [1],pKi [2],Compound
7.30 to 8.30,> 8.30,"Cc1c[nH]c2nccc(Oc3ccc(C4CCCN4)cc3)c12 (single isomer, unassigned) [Example 18A, 3-methyl-4-(4-(pyrrolidin-2-yl)phenoxy)-1H-pyrrolo[2,3-b]pyridine]"
7.30 to 8.30,7.30 to 8.30,"NCCc1ccc(Oc2ccnc3[nH]ccc23)cc1 [Example 4, 2-(4-((1H-pyrrolo[2,3-b]pyridin-4-yl)oxy)phenyl)ethanamine]"
< 7.30,< 7.30,"Cc1c[nH]c2ncnc(Oc3ccc(CCN)cc3)c12 [Example 8, 2-(4-((5-methyl-7H-pyrrolo[2,3-d]pyrimidin-4-yl)oxy)phenyl)ethanamine]"
< 7.30,< 7.30,"Cc1c[nH]c2ncnc(Oc3ccc(CN)cc3)c12 [Example 9, (4-((5-methyl-7H-pyrrolo[2,3-d]pyrimidin-4-yl)oxy)phenyl)methanamine]"
> 8.30,> 8.30,"Cc1c[nH]c2nccc(Oc3ccc(CN)cc3F)c12 [Example 12, (3-fluoro-4-((3-methyl-1H-pyrrolo[2,3-b]pyridin-4-yl)oxy)phenyl)methanamine]"
7.30 to 8.30,> 8.30,"Cc1c[nH]c2nccc(Oc3ccc4c(c3)CNCCC4)c12 [Example 16, 8-((3-methyl-1H-pyrrolo[2,3-b]pyridin-4-yl)oxy)-2,3,4,5-tetrahydro-1H-benzo[c]azepine]"
7.30 to 8.30,> 8.30,"Cc1c[nH]c2nccc(Oc3ccc(C4CNC4)cc3)c12 [Example 17, 4-(4-(azetidin-3-yl)phenoxy)-3-methyl-1H-pyrrolo[2,3-b]pyridine]"
> 8.30,> 8.30,"Cc1c[nH]c2nccc(Oc3ccc(CCN)cc3)c12 [Example 19, 2-(4-((3-methyl-1H-pyrrolo[2,3-b]pyridin-4-yl)oxy)phenyl)ethanamine]"
> 8.30,> 8.30,"Cc1c[nH]c2nccc(Oc3ccc(C4CCNC4)cc3)c12 (centres unmarked) [Example 20, 3-methyl-4-(4-(pyrrolidin-3-yl)phenoxy)-1H-pyrrolo[2,3-b]pyridine]"
7.30 to 8.30,> 8.30,"Cc1c[nH]c2nccc(Oc3ccc(CN)cc3)c12 [Example 21, (4-((3-methyl-1H-pyrrolo[2,3-b]pyridin-4-yl)oxy)phenyl)methanamine]"
> 8.30,> 8.30,"Cc1c[nH]c2nccc(Oc3ccc(C(C)N)cc3F)c12 (centres unmarked) [Example 23, 1-(3-fluoro-4-((3-methyl-1H-pyrrolo[2,3-b]pyridin-4-yl)oxy)phenyl)ethanamine]"
7.30 to 8.30,> 8.30,"Cc1c[nH]c2nccc(Oc3ccc(C(C)N)cc3)c12 (centres unmarked) [Example 24, 1-(4-((3-methyl-1H-pyrrolo[2,3-b]pyridin-4-yl)oxy)phenyl)ethanamine]"
7.30 to 8.30,> 8.30,"Cc1c[nH]c2nccc(Oc3ccc(C(C)(C)N)cc3)c12 [Example 25, 2-(4-((3-methyl-1H-pyrrolo[2,3-b]pyridin-4-yl)oxy)phenyl)propan-2-amine]"
7.30 to 8.30,7.30 to 8.30,Cc1c[nH]c2nccc(Oc3ccc4c(c3)CCCC4N)c12 (centres unmarked) [Example 26]
< 7.30,< 7.30,"Cc1c[nH]c2nccc(Oc3ccc(CN4CCOCC4)cc3)c12 [Example 27, 4-(4-((3-Methyl-1H-pyrrolo[2,3-b]pyridin-4-yl)oxy)benzyl)morpholine]"
7.30 to 8.30,7.30 to 8.30,"Cc1c[nH]c2nccc(Oc3ccc(CNC4CCN(C)CC4)cc3)c12 [Example 30, 1-methyl-N-(4-((3-methyl-1H-pyrrolo[2,3-b]pyridin-4-yl)oxy)benzyl)piperidin-4-amine]"
7.30 to 8.30,7.30 to 8.30,"Cc1c[nH]c2nccc(Oc3ccc(CNCCO)cc3)c12 [Example 31, 2-((4-((3-methyl-1H-pyrrolo[2,3-b]pyridin-4-yl)oxy)benzyl)amino)ethanol]"
< 7.30,7.30 to 8.30,"Cc1c[nH]c2nccc(Oc3ccc(CN4CCN(C)CC4)cc3)c12 [Example 33, 3-methyl-4-(4-((4-methylpiperazin-1-yl)methyl)phenoxy)-1H-pyrrolo[2,3-b]pyridine]"
> 8.30,> 8.30,"N#Cc1c[nH]c2nccc(Oc3ccc4c(c3)CNCC4)c12 [Example 34, 4-((1,2,3,4-Tetrahydroisoquinolin-7-yl)oxy)-1H-pyrrolo[2,3-b]pyridine-3-carbonitrile]"
7.30 to 8.30,> 8.30,"NCc1cc(F)c(Oc2ccnc3[nH]ccc23)c(F)c1 [Example 35, (4-((1H-Pyrrolo[2,3-b]pyridin-4-yl)oxy)-3,5-difluorophenyl)methanamine]"
> 8.30,> 8.30,"Cc1c[nH]c2nccc(Oc3ccc(C[C@H](N)CO)cc3)c12 [Example 37, (S)-2-amino-3-(4-((3-methyl-1H-pyrrolo[2,3-b]pyridin-4-yl)oxy)phenyl)propan-1-ol]"
